Source: publication PMC6290480 (Cannabis and Cannabinoid Research, 2018)
Values after ≈ are worked out from the molar mass of the structure shown. Where two headings read alike, the source gives them in different places.

Columns and labels:
physchem = type: physicochemical; conditions: for solubility thermodynamic at 24 h: 37 °C, pH 7.4, aqueous buffer, thermodynamic from solid
Method: The thermodynamic solubility of selected compounds were tested according to previously reported methods.[16],[22] In brief, stock solution of test compound (1 mg/mL) in acetonitrile was prepared and then diluted with mobile phase to prepare the calibration standards in the concentration range of 0.1–50 μg/mL. Following this, 2 mg of test compound powder was suspended in 2 mL of phosphate-buffered saline (PBS; 10 mM) at pH 7.4 and 37°C. The suspension was stirred at 37°C with 800 rpm stirring for 24 h. After completion of the incubation, the saturated suspension was filtered through a syringe polytetrafluoroethylene filter (0.45 μm), which has no absorption for the compounds. 200 μL of the filtrate was diluted with 800 μL acetonitrile immediately to a final volume of 1 mL. Subsequently, 20 μL of this solution was used for the high-performance liquid chromatography (HPLC) analysis, which was analyzed on Shimadzu HPLC (LC model: LC20AB, UV/vis detector: SPD20A; Autosampler: SIL-20A HT) with a Phenomenex reverse phase C18 column (250×3 mm, Luna 5 μm C18 100Å). The HPLC analysis was carried out by using the mixture of acetonitrile and water (60:40 v/v) as the mobile phase with a flow rate of 1 mL/min. The signals were detected at UV wavelength 254 nm. At this wavelength, each peak's area under the curve was measured and used for the quantitative evaluation.

CB1 [1] = molecular target: T1, CB1 (Homo sapiens, UniProt P21554); test: biochemical; type: binding; conditions: for α (binding cooperativity factor): cooperativity with orthosteric agonist [3H]CP55,940, α >1 positive allosteric modulator
T1 construct: expressed in transfected cells; host or cells: HEK293T cells, transient calcium phosphate transfection, pcDNA3.1 vector; membrane preparation
T1 sequence (P21554 whole entry): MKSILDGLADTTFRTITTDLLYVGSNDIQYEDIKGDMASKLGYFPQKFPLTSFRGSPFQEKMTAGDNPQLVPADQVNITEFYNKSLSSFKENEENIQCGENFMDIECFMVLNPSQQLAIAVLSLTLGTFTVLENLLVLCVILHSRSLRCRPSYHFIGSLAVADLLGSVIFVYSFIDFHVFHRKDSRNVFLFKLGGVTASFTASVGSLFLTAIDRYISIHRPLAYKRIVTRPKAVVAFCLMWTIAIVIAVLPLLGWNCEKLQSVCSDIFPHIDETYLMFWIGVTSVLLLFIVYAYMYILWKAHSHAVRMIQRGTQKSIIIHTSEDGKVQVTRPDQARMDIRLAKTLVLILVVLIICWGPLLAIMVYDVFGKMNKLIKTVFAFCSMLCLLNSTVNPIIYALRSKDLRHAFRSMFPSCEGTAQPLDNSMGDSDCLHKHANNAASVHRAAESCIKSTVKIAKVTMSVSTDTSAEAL
Method: (§1) Human embryonic kidney 293T (HEK293T) cells were grown and seeded in Dulbecco's modified Eagle's medium with 3.5 mg/mL glucose and 10% fetal bovine serum at 37°C and 5% carbon dioxide. To express the CB1 receptors, HEK293T cells were seeded at 1,000,000 cells/100-mm plate. The following day, cells were transfected via the calcium phosphate method with ∼10 μg of human CB1 receptor cloned into pcDNA3.1[23] Membranes of the transfected cells were prepared as previously described 21 h after transfection.[24]
Approximately 3 μg of membrane preparation expressing CB1 was incubated with nine concentrations of allosteric modulator (1 nM-10 μM). The radiolabeled tracer [[3]H]CP55,940 (150.2 Ci/mmol; Perkin Elmer), an orthosteric agonist of CB1, was added at 0.5 nM. Nonspecific binding was established by treating with a high concentration of unlabeled CP55,940 (10 μM; Tocris). The membranes were incubated at 30°C for 60 min, and the reaction was terminated with the addition of 300 μL of Tris-Mg^2+-EDTA (TME) buffer with 5% bovine serum albumin (BSA). The mixture was harvested by filtration through a Brandel cell harvester with Whatman GF/C filter paper. Liquid scintillation counting was used to measure radioactivity.
To synthesize the target azaindole-2-carboxamides, it requires corresponding azaindole-2-carboxylic acids (i.e., 1b and 8) as the key building blocks (Fig. 2). To access these azaindole-2-carboxylic acids, we used the Hemetsberger–Knittel indole synthesis, which involves Knoevenagel condensation between a pyridinecarbaldehyde and the azido acetate 5.[20] […] In this investigation, the 6-azaindole-2-carboxylic acid 1b was obtained from a commercial source (Achemtek, Worcester, MA). […] At the receptor binding level, when α is >1, the ligand is a positive allosteric modulator, whereas when α is <1, the ligand is a negative allosteric modulator. Accordingly, when α is equal to 1, it indicates no allosteric modulation on orthosteric ligand binding.

CB1 [2] = molecular target: T1, CB1; test: [35S]GTPγS binding evaluation (G-protein coupling); type: biochemical; conditions: percent of basal; for [35S]GTPγS binding, allosteric modulator alone: CB1 membranes treated with modulator alone; for [35S]GTPγS binding in the presence of CP55,940: modulator at 5 and 10 μM plus 0.1 μM CP55,940, compared to 0.1 μM CP55,940 alone
Method: as §1
To assess the impact of 3c and 3d on G-protein coupling of CB1, GTPγS assays were performed essentially as described previously.[20] […] GTPγS binding assay buffer (50 mM Tris-HCl, pH 7.4, 3 mM MgCl2, 0.2 mM EGTA, and 100 mM NaCl) was added to 200 μL. The membranes were incubated for 1 h at 30°C. To determine nonspecific binding, 10 μM unlabeled GTPγS (Sigma) was used. To determine basal activity, membrane preparations were treated with vehicle (dimethylsulfoxide or DMSO) alone. Termination of the reaction was achieved through filtration using Whatman GF/C filter papers and washing with cold TME buffer. Bound radioactivity was measured by liquid scintillation counting.

[3] = membranes of HEK293T cells expressing CB1, tracer [3H]CP55,940 0.5 nM, 30°C, 60 min
[4] = membranes of HEK293T cells expressing CB1, tracer [3H]CP55,940 0.5 nM, 30°C, 60 min, read-out: KB (equilibrium dissociation constant)

For `CN(C)c1ccc(CCNC(=O)c2cc3cc(Cl)cnc3[nH]2)cc1` [Compound 9a], the “solubility in common organic solvents suitable for HPLC sample preparation” value (physchem) was “exceptionally low solubility”, the solubility thermodynamic at 24 h (physchem) was 3 µg/mL (≈ 8.75 µM) and the “KB (equilibrium dissociation constant)” value (CB1 [1]; [3]) was “completely lost their binding affinity”. It also gave a Kb (CB1 [1]; [4]) greater than 10 µM.

In the case of `O=C(NCCc1ccc(N2CCCCC2)cc1)c1cc2cc(Cl)ccc2[nH]1` [Compound 3b], the Kb (CB1 [1]) was 0.2 µM and the “α (binding cooperativity factor)” value (CB1 [1]) was 5.1.

With `CN(C)c1ccc(CCNC(=O)c2cc3cc(Cl)ccc3[nH]2)cc1` [Compound 3a] the “Thermodynamic solubility (obtained from experiments)” value (physchem; 24 h, pH 7.4) was 0 µg/mL, the “α (binding cooperativity factor)” value (CB1 [1]) was 4.2 and the Kb (CB1 [1]; [4]) was 0.3 µM.

With `O=C(NCCc1ccc(N2CCCCC2)cc1)c1cc2cc(Cl)cnc2[nH]1` [Compound 9b] the “KB (equilibrium dissociation constant)” value (CB1 [1]; [3]) was “completely lost their binding affinity” and the Kb (CB1 [1]; [4]) was greater than 10 µM.

For `O=C(NCCc1ccc(N2CCCCC2)cc1)c1cc2cc(Cl)ncc2[nH]1` [Compound 3d], the “[35S]GTPγS binding, allosteric modulator alone” value (CB1 [2]) was “inhibition of G-protein coupling was also seen”, the “[35S]GTPγS binding in the presence of CP55,940” value (CB1 [2]) was “inhibition of GTPγS binding” and the “reduction of binding to the CB1 receptor in comparison with indole-2-carboxamide counterpart 3b” value (CB1 [1]; 3d versus 3b) was “about 25 fold”. The “KB (equilibrium dissociation constant)” value (CB1 [1]; [3]) was “modest binding affinity” and the Kb (CB1 [1]; [4]) was 5.6 µM.

In the case of `CN(C)c1ccc(CCNC(=O)c2cc3cc(Cl)ncc3[nH]2)cc1` [Compound 3c], the solubility thermodynamic at 24 h (physchem) was 1.6 µg/mL (≈ 4.67 µM), the “[35S]GTPγS binding, allosteric modulator alone” value (CB1 [2]) was “inhibition of G-protein coupling was also seen” and the “[35S]GTPγS binding in the presence of CP55,940” value (CB1 [2]) was “inhibition of GTPγS binding”. The “α (binding cooperativity factor)” value (CB1 [1]) was 3.2, the “KB (equilibrium dissociation constant)” value (CB1 [1]; [3]) was “modest binding affinity” and the Kb (CB1 [1]; [4]) was 2.4 µM.
